# Patent US5262411A, “Isocephem derivatives, and antimicrobial composition containing the derivatives” (Otsuka Pharmaceutical Co., Ltd., priority 1989, dated 1993)
# Where two headings read alike, the source gives them in different places.
# Columns and labels:
# Assay type in all cases: cell-based
# P. aeruginosa E-2 = assay: MIC against P. aeruginosa E-2 by the plate diluted method; conditions: Pseudomonas aeruginosa, E2; P. aeruginosa E-2; 1×10^6 cells/ml; read-out: MIC
# Experimental: (§1) In order to investigate the in vitro activity of the test compounds against various bacteria, the minimal inhibitory concentration (MIC) values were determined by the plate diluted method (See CHEMOTHERAPY, 22, 1126-1128, 1974.)
# (§2) Each strain was adjusted to 1×10^6 cells/ml (O.D. 600 mμ, 0.07 to 0.16).
# M. moganii IIDkono = assay: MIC against M. moganii IIDkono by the plate diluted method
# Experimental: as §1, §2
# P. aeruginosa ATCC-10145 = assay: MIC against P. aeruginosa ATCC-10145 by the plate diluted method; conditions: Pseudomonas aeruginosa, ATCC10145; P. aeruginosa ATCC-10145; 1×10^6 cells/ml; read-out: MIC
# Experimental: as §1, §2
# E. coli NIHJ JC-2 = assay: MIC against E. coli NIHJ JC-2 by the plate diluted method; conditions: Escherichia coli, NIHJJC2
# Experimental: as §1, §2
# K. pneumoniae NCTC-9632 = assay: MIC against K. pneumoniae NCTC-9632 by the plate diluted method; conditions: Klebsiella pneumoniae, NCTC9632; K. pneumoniae NCTC-9632; 1×10^6 cells/ml; read-out: MIC
# Experimental: as §1, §2
# S. aureaus FDA-209P = assay: MIC against S. aureaus FDA-209P by the plate diluted method; conditions: Staphylococcus aureus, FDA209P; S. aureaus FDA-209P; 1×10^6 cells/ml; read-out: MIC
# Experimental: as §1, §2
# S. marcescens IFO 12648 = assay: MIC against S. marcescens IFO 12648 by the plate diluted method; conditions: Serratia marcescens, IFO12648; S. marcescens IFO 12648; 1×10^6 cells/ml; read-out: MIC
# Experimental: as §1, §2
# A. calcoaceticus Ac-54 = assay: MIC against A. calcoaceticus Ac-54 by the plate diluted method; conditions: Acinetobacter calcoaceticus, AC54; A. calcoaceticus Ac-54; 1×10^6 cells/ml; read-out: MIC
# Experimental: as §1, §2
# [1] = E. coli NIHJ JC-2, 1×10^6 cells/ml, read-out: MIC
"MIC (M. moganii IIDkono; M. moganii IIDkono, 1×10^6 cells/ml, read-out: MIC)",SMILES,MIC (P. aeruginosa E-2),MIC (M. moganii IIDkono),MIC (P. aeruginosa ATCC-10145),MIC (E. coli NIHJ JC-2; [1]),MIC (K. pneumoniae NCTC-9632),MIC (S. aureaus FDA-209P),MIC (S. marcescens IFO 12648),MIC (A. calcoaceticus Ac-54),MIC (E. coli NIHJ JC-2)
,"Nc1nc(/C(=N/OCc2cc(=O)c(O)cn2O)C(=O)N[C@@H]2C(=O)N3C(C(=O)O)=C(CSc4snc(O)c4C(=O)O)SC[C@H]23)ns1 [No. 22, (6S,7S)-7-[(Z)-2-(5-amino-1,2,4-thiadiazol-3-yl)-2-(1,5-dihydroxy-4-pyridone-2-ylmethoxyimino)acetamide]-3-(4-carboxy-3-hydroxyisothiazol-5-ylthiomethyl) isocephem-4-carboxylic acid]",0.2 µg/mL,0.05 µg/mL,0.1 µg/mL,0.05 µg/mL,0.012 µg/mL,100 µg/mL,0.012 µg/mL,0.1 µg/mL,
,"Nc1nc(/C(=N/OCc2cc(=O)c(O)cn2O)C(=O)N[C@@H]2C(=O)N3C(C(=O)O)=C(CSc4snc(O)c4C(=O)O)CS[C@H]23)ns1 [No. 23, (6R,7R)-7-[(Z)-2-(5-amino-1,2,4-thiadiazol-3-yl)-2-(1,5-dihydroxy-4-pyridone-2-ylmethoxyimino)acetamide]-3-(4-carboxy-3-hydroxyiso-thiazol-5-ylthiomethyl)-3-cephem-4-carboxylic acid]",0.1 µg/mL,0.05 µg/mL,0.1 µg/mL,0.1 µg/mL,0.024 µg/mL,100 µg/mL,0.024 µg/mL,0.1 µg/mL,
0.024 µg/mL,"Nc1nc(/C(=N/OCc2cc(=O)c(O)cn2O)C(=O)N[C@@H]2C(=O)N3C(C(=O)[O-])=C(CSc4cc[n+](CC(=O)O)cc4)SC[C@H]23)ns1 [No. 24, (6S,7S)-7-[(Z)-2-(5-amino-1,2,4-thiadiazol-3-yl)-2-(1,5-dihydroxy-4-pyridone-2-ylmethoxyimino)acetamide]-3-(1-carboxymethylpyridinium-4-ylthiomethyl)isocephem-4-carboxylate]",0.2 µg/mL,,0.1 µg/mL,0.1 µg/mL,0.024 µg/mL,12.5 µg/mL,0.024 µg/mL,0.39 µg/mL,
,"Nc1nc(/C(=N/OCc2cc(=O)c(O)cn2O)C(=O)N[C@@H]2C(=O)N3C(C(=O)[O-])=C(CSc4cc[n+](CC(=O)O)cc4)CS[C@H]23)ns1 [No. 25, (6R,7R)-7-[(Z)-2-(5-amino-1,2,4-thiadiazol-3-yl)-2-(1,5-dihydroxy-4-pyridone-2-ylmethoxyimino)acetamide]-3-(1-carboxymethylpyridinium-4-ylthiomethyl)-3-cephem-4-carboxylate]",0.2 µg/mL,0.05 µg/mL,0.1 µg/mL,,0.024 µg/mL,6.25 µg/mL,0.024 µg/mL,0.39 µg/mL,0.2 µg/mL
